{
  "source": "patent US9493461B2",
  "about": "“Tetracyclic heterocycle compounds and methods of use thereof for the treatment of hepatitis C” (priority 2013, dated 2016)",
  "key": {"[1]": {"tested_on": "HCV replicon genotype 1a", "assay": "HCV replicon assay, genotype 1a (cell ELISA for replicon-encoded NS3/4A)", "assay_type": "cell-based, hepatitis C virus (HCV)", "conditions": "Hepatitis C virus, 96 h, read-out: 1a IC50 (nM), genotype 1a replicon cells, 96 hours incubation, NS3/4A ELISA readout, % of DMSO control", "procedure": "Measurement of inhibition by compounds was performed using the HCV replicon system. Several different replicons encoding different HCV genotypes or mutations were used. In addition, potency measurements were made using different formats of the replicon assay, including different ways of measurements and different plating formats. See Jan M. Vrolijk et al., A replicons-based bioassay for the measurement of interferons in patients with chronic hepatitis C, 110 J. V[…] 201 (2003); Steven S. Carroll et al., Inhibition of Hepatitis C Virus RNA Replication by 2′-Modified Nucleoside Analogs, 278(14) J. BIOLOGICAL CHEMISTRY 11979 (2003). However, the underlying principles are common to all of these determinations, and are outlined below.\n(§1) Stable neomycin phosphotransferase encoding replicons-harboring cell lines were used, so all cell lines were maintained under G418 selection prior to the assay. Potency was determined using a cell ELISA assay with an antibody to the replicons encoded NS3/4a protease. See Caterina Trozzi et al., In Vitro Selection and Characterization of Hepatitis C Virus Serine Protease Variants Resistant to an Active-Site Peptide Inhibitor, 77(6) J. Virol. 3669 (2003). To initiate an assay, replicon cells were plated in the presence of a dilution series of test compound in the absence of G418. Typically, the assays were performed in a 96-well plate formate for manual operation, or a 384-well plate format for automated assay. Replicon cells and compound were incubated for 96 hours. At the end of the assay, cells were washed free of media and compound, and the cells were then lysed. RNA was quantified indirectly through detection of replicon-encoded NS3/4A protein levels, through an ELISA-based assay with an antibody specific for NS3/4A. IC50 determinations were calculated as a percentage of a DMSO control by fitting the data to a four-parameter fit function and the data obtained is provided in the table below.\n(§2) Data for selected compounds of the present invention was obtained for genotypes 1a and 1b using this method and is provided in the table below: […]"}, "[2]": {"tested_on": "HCV replicon genotype 1b", "assay": "HCV replicon assay, genotype 1b (cell ELISA for replicon-encoded NS3/4A)", "assay_type": "cell-based, hepatitis C virus (HCV)", "conditions": "Hepatitis C virus, 96 h, read-out: 1b IC50 (nM), genotype 1b replicon cells, 96 hours incubation, NS3/4A ELISA readout, % of DMSO control", "procedure": "The HCV NS5B inhibitory activity of the present compounds may be tested using assays known in the art. The HCV NS5B polymerase inhibitors described herein have activities in a genotype 1b replicon assay as described in the Examples. The assay is performed by incubating a replicon harboring cell-line in the presence of inhibitor for a set period of time and measuring the effect of the inhibitor on HCV replicon replication either directly by quantifying replicon RNA level, or indirectly by measuring enzymatic activity of a co-encoded reporter enzyme such as luciferase or β-lactamase. By performing a series of such measurements at different inhibitor concentrations, the effective inhibitory concentration of the inhibitor (EC50 or EC90) is determined See Jan M. Vrolijk et al., A replicons-based bioassay for the measurement of interferons in patients with chronic hepatitis C, 110 J. VIROLOGICAL METHODS 201 (2003). Such assays may also be run in an automated format for high through-put screening. See Paul Zuck et al., A cell-based β-lactamase reporter gene assay for the identification of inhibitors of hepatitis C virus replication, 334 ANALYTICAL BIOCHEMISTRY 344 (2004).\nMeasurement of inhibition by compounds was performed using the HCV replicon system. Several different replicons encoding different HCV genotypes or mutations were used. In addition, potency measurements were made using different formats of the replicon assay, including different ways of measurements and different plating formats. See Jan M. Vrolijk et al., A replicons-based bioassay for the measurement of interferons in patients with chronic hepatitis C, 110 J. VIROLOGICAL METHODS 201 (2003); Steven S. Carroll et al., Inhibition of Hepatitis C Virus RNA Replication by 2′-Modified Nucleoside Analogs, 278(14) J. BIOLOGICAL CHEMISTRY 11979 (2003). However, the underlying principles are common to all of these determinations, and are outlined below.\nas §1, §2"}},
  "data": [
    {"smiles": "CNC(=O)c1c(-c2ccc(F)cc2)oc2cc(N(C)S(C)(=O)=O)c(-c3ccc4c(n3)-c3cc5c(F)cccc5n3CN4)cc12", "note": "[Example 56, 5-(11-fluoro-5,6-dihydropyrido[3′,2′:4,5]pyrimido[1,6-a]indol-2-yl)-2-(4-fluorophenyl)-N-methyl-6-(N-methylmethylsulfonamido)benzofuran-3-carboxamide]", "values": [
      {"measurement": "IC50", "setting": "[1]", "result": 5.26, "unit": "nM"},
      {"measurement": "IC50", "setting": "[2]", "result": 5.32, "unit": "nM"}
    ]},
    {"smiles": "CNC(=O)c1c(-c2ccc(F)cc2)oc2cc(N(C)S(C)(=O)=O)c(-c3ccc4nc(CN5CC(F)(C#N)C5)n5c6cccc(F)c6cc5c4n3)cc12", "note": "[Example 110]", "values": [
      {"measurement": "IC50", "setting": "[1]", "result": 4.04, "unit": "nM"},
      {"measurement": "IC50", "setting": "[2]", "result": 5.51, "unit": "nM"}
    ]},
    {"smiles": "CNC(=O)c1c(-c2ccc(F)cc2)oc2cc(N(C)S(C)(=O)=O)c(-c3ccc4nc(CN(C)CC(=O)N(C)C)n5c6cccc(F)c6cc5c4n3)cc12", "note": "[Example 115]", "values": [
      {"measurement": "IC50", "setting": "[1]", "result": 2.19, "unit": "nM"},
      {"measurement": "IC50", "setting": "[2]", "result": 4.93, "unit": "nM"}
    ]},
    {"smiles": "CNC(=O)c1c(-c2ccc(F)cc2)oc2cc(N(C)S(C)(=O)=O)c(-c3ccc4nc(CN5CC(F)(F)C5)n5c6cccc(F)c6cc5c4n3)cc12", "note": "[Example 80]", "values": [
      {"measurement": "IC50", "setting": "[1]", "result": 2.65, "unit": "nM"},
      {"measurement": "IC50", "setting": "[2]", "result": 2.46, "unit": "nM"}
    ]},
    {"smiles": "CNC(=O)c1c(-c2ccc(F)cc2)oc2cc(N(C)S(C)(=O)=O)c(-c3ccc4nc(CN5CC(C(C)(C)O)C5)n5c6cccc(F)c6cc5c4n3)cc12", "note": "[Example 97]", "values": [
      {"measurement": "IC50", "setting": "[1]", "result": 2.98, "unit": "nM"},
      {"measurement": "IC50", "setting": "[2]", "result": 3.49, "unit": "nM"}
    ]},
    {"smiles": "CNC(=O)c1c(-c2ccc(F)cc2)oc2cc(N(C)S(C)(=O)=O)c(-c3ccc4nc(CN5CC6CC6C5)n5c6cccc(F)c6cc5c4n3)cc12", "note": "(stereo not shown) [Example 102]", "values": [
      {"measurement": "IC50", "setting": "[1]", "result": 7.03, "unit": "nM"},
      {"measurement": "IC50", "setting": "[2]", "result": 11.8, "unit": "nM"}
    ]},
    {"smiles": "CNC(=O)c1c(-c2ccc(F)cc2)oc2cc(N(C)S(C)(=O)=O)c(-c3cc4c(cn3)nc(CS(C)(=O)=O)n3c5cccc(F)c5cc43)cc12", "note": "[Example 24]", "values": [
      {"measurement": "IC50", "setting": "[1]", "result": 2.73, "unit": "nM"},
      {"measurement": "IC50", "setting": "[2]", "result": 1.9, "unit": "nM"}
    ]},
    {"smiles": "CNC(=O)c1c(-c2ccc(OC(F)F)nc2)oc2cc(N(C)S(C)(=O)=O)c(-c3cc4c(cn3)ncn3c5cccc(F)c5cc43)cc12", "note": "[Example 18]", "values": [
      {"measurement": "IC50", "setting": "[1]", "result": 1.06, "unit": "nM"},
      {"measurement": "IC50", "setting": "[2]", "result": 1.86, "unit": "nM"}
    ]},
    {"smiles": "CNC(=O)c1c(-c2ccc(F)cc2)oc2cc(N(C)S(C)(=O)=O)c(-c3ccc4nc(CS(C)(=O)=O)n5c6cccc(F)c6cc5c4n3)cc12", "note": "[Example 23, 5-(11-fluoro-6-((methylsulfonyl)methyl)pyrido[3′,2′:4,5]pyrimido[1,6-a]indol-2-yl)-2-(4-fluorophenyl)-N-methyl-6-(N-methylmethylsulfonamido)benzofuran-3-carboxamide]", "values": [
      {"measurement": "IC50", "setting": "[1]", "result": 1.85, "unit": "nM"},
      {"measurement": "IC50", "setting": "[2]", "result": 2.98, "unit": "nM"}
    ]},
    {"smiles": "CNC(=O)c1c(-c2ccc(F)cc2)oc2cc(N(C)S(C)(=O)=O)c(-c3ccc4nc(CN5CC(C)(OC)C5)n5c6cccc(F)c6cc5c4n3)cc12", "note": "[Example 104]", "values": [
      {"measurement": "IC50", "setting": "[1]", "result": 2.31, "unit": "nM"},
      {"measurement": "IC50", "setting": "[2]", "result": 5.23, "unit": "nM"}
    ]},
    {"smiles": "CNC(=O)c1c(-c2ccc(F)cc2)oc2cc(N(C)S(C)(=O)=O)c(-c3ccc4nc(CN5CC[C@@H](O)C5)n5c6cccc(F)c6cc5c4n3)cc12", "note": "[Example 87]", "values": [
      {"measurement": "IC50", "setting": "[1]", "result": 1.28, "unit": "nM"},
      {"measurement": "IC50", "setting": "[2]", "result": 1.26, "unit": "nM"}
    ]},
    {"smiles": "CNC(=O)c1c(-c2ccc(F)cc2)oc2cc(N(C)S(C)(=O)=O)c(-c3ccc4c(n3)-c3cc5c(F)cccc5n3C(CC(=O)OC)N4)cc12", "note": "(stereo not shown) [Example 71, methyl 2-(11-fluoro-2-(2-(4-fluorophenyl)-3-(methylcarbamoyl)-6-(N-methylmethylsulfonamido)benzofuran-5-yl)-5,6-dihydropyrido[3′,2′:4,5]pyrimido[1,6-a]indol-6-yl)acetate]", "values": [
      {"measurement": "IC50", "setting": "[1]", "result": 2.98, "unit": "nM"},
      {"measurement": "IC50", "setting": "[2]", "result": 3.44, "unit": "nM"}
    ]},
    {"smiles": "CNC(=O)c1c(-n2ccc(C)cc2=O)oc2cc(N(C)S(C)(=O)=O)c(-c3ccc4nc(CN5CC(F)C5)n5c6cccc(F)c6cc5c4n3)cc12", "note": "[Example 30]", "values": [
      {"measurement": "IC50", "setting": "[1]", "result": 2.41, "unit": "nM"},
      {"measurement": "IC50", "setting": "[2]", "result": 2.32, "unit": "nM"}
    ]},
    {"smiles": "CNC(=O)c1c(-c2ccc(F)cc2)oc2cc(N(C)S(C)(=O)=O)c(-c3ccc4nc(CN5CC(F)C5)n5c6cccc(F)c6cc5c4n3)cc12", "note": "[Example 76, 3-fluoro-1-((11-fluoro-2-(2-(4-fluorophenyl)-3-(methylcarbamoyl)-6-(N-methylmethylsulfonamido)benzofuran-5-yl)pyrido[3′,2′:4,5]pyrimido[1,6-a]indol-6-yl)methyl)azetidin-1-ium methanesulfonate]", "values": [
      {"measurement": "IC50", "setting": "[1]", "result": 4.13, "unit": "nM"},
      {"measurement": "IC50", "setting": "[2]", "result": 3.78, "unit": "nM"}
    ]}
  ]
}
